In US7425557B2, “Inhibitors of glycogen synthase kinase 3” (Novartis Vaccines and Diagnostics, Inc., priority 1998, dated 2008) one finds IC50 data, which are given here for 35 compounds.

human GSK3β, sequence (P49841 whole entry): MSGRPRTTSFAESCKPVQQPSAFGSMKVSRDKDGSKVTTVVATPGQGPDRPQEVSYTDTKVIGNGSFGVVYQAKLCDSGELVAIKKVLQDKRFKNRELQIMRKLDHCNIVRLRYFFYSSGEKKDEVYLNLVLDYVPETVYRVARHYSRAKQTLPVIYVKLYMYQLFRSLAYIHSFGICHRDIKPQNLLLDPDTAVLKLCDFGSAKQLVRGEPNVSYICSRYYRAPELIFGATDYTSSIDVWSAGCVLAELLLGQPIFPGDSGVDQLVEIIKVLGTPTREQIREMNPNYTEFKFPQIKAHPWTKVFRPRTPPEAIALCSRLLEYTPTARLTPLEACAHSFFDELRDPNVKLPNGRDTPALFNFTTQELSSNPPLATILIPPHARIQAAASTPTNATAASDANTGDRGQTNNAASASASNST

This experiment deals with human GSK3β (Homo sapiens, UniProt P49841). The experiment can be described thus: Screening for GSK3 inhibitory activity using a cell-free assay. Type of experiment: biochemical. Conditions: read-out: IC50 with respect to GSK3. In a few lines:
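Compounds in DMSO were tested against human GSK3β over a three-hour kinase reaction. Radiolabeled phosphate transferred to the peptide was captured on streptavidin plates after EDTA/ATP stop and quantified by scintillation counting. Signal was plotted versus compound concentration.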
For `COc1cccc(CNC(=O)c2ccc(-c3ccnc(NCCNc4ccc([N+](=O)[O-])cn4)n3)cc2)c1OC` [N-[(2,3-dimethoxyphenyl)methyl]{4-[2-({2-[(5-nitro(2-pyridyl))amino]ethyl}amino)pyrimidin-4-yl]phenyl}carboxamide], the IC50 (usually the midpoint of a concentration-inhibition curve) was ≤ 10 µM.
In the case of `O=C(NCc1ccc(Cl)c(Cl)c1)c1ccc(-c2ccnc(NCCNc3ccc([N+](=O)[O-])cn3)n2)cc1` [N-[(3,4-dichlorophenyl)methyl]{4-[2-({2-[(5-nitro(2-pyridyl))amino]ethyl}amino)pyrimidin-4-yl]phenyl}carboxamide] it was ≤ 10 µM.
The same measure for `O=C(NCc1ccc(F)c(F)c1)c1ccc(-c2ccnc(NCCNc3ccc([N+](=O)[O-])cn3)n2)cc1` [N-[(3,4-difluorophenyl)methyl]{4-[2-({2-[(5-nitro(2-pyridyl))amino]ethyl}amino)pyrimidin-4-yl]phenyl}carboxamide]: ≤ 10 µM; for `COc1ccc(CNC(=O)c2ccc(-c3ccnc(NCCNc4ccc([N+](=O)[O-])cn4)n3)cc2)cc1OC` [N-[(3,4-dimethoxyphenyl)methyl]{4-[2-({2-[(5-nitro(2-pyridyl))amino]ethyl}amino)pyrimidin-4-yl]phenyl}carboxamide]: ≤ 10 µM; for `O=C(NCc1cc(Cl)cc(Cl)c1)c1ccc(-c2ccnc(NCCNc3ccc([N+](=O)[O-])cn3)n2)cc1` [N-[(3,5-dichlorophenyl)methyl]{4-[2-({2-[(5-nitro(2-pyridyl))amino]ethyl}amino)pyrimidin-4-yl]phenyl}carboxamide]: ≤ 10 µM.
In the case of `O=C(NCc1cccc(Br)c1)c1ccc(-c2ccnc(NCCNc3ccc([N+](=O)[O-])cc3)n2)cc1` [N-[(3-bromophenyl)-methyl]{4-[2-({2-[(4-nitrophenyl)amino]ethyl}amino)pyrimidin-4-yl]phenyl}carboxamide] it was ≤ 10 µM; in that of `O=C(NCc1cccc(Br)c1)c1ccc(-c2ccnc(NCCNc3ccc(C(F)(F)F)cn3)n2)cc1` [N-[(3-bromophenyl)methyl](4-{2-[(2-{[5-(trifluoromethyl)(2-pyridyl)]amino}ethyl)amino]pyrimidin-4-yl}phenyl)-carboxamide], ≤ 10 µM; in that of `O=C(NCc1cccc(Br)c1)c1ccc(-c2ccnc(NCCNc3ccc4ccccc4n3)n2)cc1` [N-[(3-bromophenyl)methyl][4-(2-{[2-(2-quinolylamino)ethyl]amino}pyrimidin-4-yl)phenyl]carboxamide], ≤ 10 µM.
With `COc1cccc(CCNc2nccc(-c3ccc(C(=O)NCc4cccc(Br)c4)cc3)n2)c1` [N-[(3-bromophenyl)methyl][4-(2-{[2-(3-methoxyphenyl)ethyl]amino}pyrimidin-4-yl)phenyl]carboxamide], the 50% inhibitory concentration (IC50) was ≤ 10 µM.
The same measure for `O=C(NCc1cccc(Br)c1)c1ccc(-c2ccnc(NCCNc3ncccn3)n2)cc1` [N-[(3-bromophenyl)methyl][4-(2-{[2-(pyrimidin-2-ylamino)ethyl]amino}pyrimidin-4-yl)phenyl]carboxamide]: ≤ 1 µM; for `N#Cc1ccc(NCCNc2nccc(-c3ccc(C(=O)NCc4cccc(Br)c4)cc3)n2)nc1` [N-[(3-bromophenyl)methyl]{4-[2-({2-[(5-cyano(2-pyridyl))amino]ethyl}-amino)pyrimidin-4-yl]phenyl}carboxamide]: ≤ 1 µM.
The same measure for `O=C(NCc1cccc(Br)c1)c1ccc(-c2ccnc(NCCNc3ccc([N+](=O)[O-])cn3)n2)cc1` [N-[(3-bromophenyl)methyl]{4-[2-({2-[(5-nitro(2-pyridyl))amino]ethyl}amino)pyrimidin-4-yl]phenyl}carboxamide]: ≤ 10 µM.
The same measure for `COc1cccc(NCCNc2nccc(-c3ccc(C(=O)NCc4cccc(Br)c4)cc3)n2)n1` [N-[(3-bromophenyl)methyl]{4-[2-({2-[(6-methoxy(2-pyridyl))amino]ethyl}amino)pyrimidin-4-yl]phenyl}carboxamide]: ≤ 10 µM; for `O=C(NCc1cccc(Br)c1)c1ccc(-c2ccnc(NCCCNc3ccc([N+](=O)[O-])cn3)n2)cc1` [N-[(3-bromophenyl)methyl]{4-[2-({3-[(5-nitro(2-pyridyl))-amino]propyl}amino)pyrimidin-4-yl]phenyl}carboxamide]: ≤ 10 µM; for `O=C(NCc1cccc(Cl)c1)c1ccc(-c2ccnc(NCCNc3ccc([N+](=O)[O-])cn3)n2)cc1` [N-[(3-chlorophenyl)methyl]{4-[2-({2-[(5-nitro(2-pyridyl))amino]ethyl}amino)pyrimidin-4-yl]-phenyl}carboxamide]: ≤ 10 µM.
As to `O=C(NCc1cccc(F)c1)c1ccc(-c2ccnc(NCCNc3ccc([N+](=O)[O-])cn3)n2)cc1` [N-[(3-fluorophenyl)methyl]{4-[2-({2-[(5-nitro(2-pyridyl))amino]ethyl}amino)pyrimidin-4-yl]-phenyl}carboxamide], the IC50 was ≤ 10 µM.
The same measure for `O=C(NCc1cccc(I)c1)c1ccc(-c2ccnc(NCCNc3ccc([N+](=O)[O-])cn3)n2)cc1` [N-[(3-iodophenyl)methyl]{4-[2-({2-[(5-nitro(2-pyridyl))amino]ethyl}amino)pyrimidin-4-yl]phenyl}carboxamide]: ≤ 10 µM; for `COc1cccc(CNC(=O)c2ccc(-c3ccnc(NCCNc4ccc([N+](=O)[O-])cn4)n3)cc2)c1` [N-[(3-methoxyphenyl)methyl]{4-[2-({2-[(5-nitro(2-pyridyl))amino]ethyl}amino)pyrimidin-4-yl]phenyl}carboxamide]: ≤ 1 µM.
For the compound `Cc1cccc(CNC(=O)c2ccc(-c3ccnc(NCCNc4ccc([N+](=O)[O-])cn4)n3)cc2)c1` [N-[(3-methylphenyl)methyl){4-[2-({2-[(5-nitro(2-pyridyl))amino]ethyl}amino)pyrimidin-4-yl]phenyl}carboxamide], the IC50 is ≤ 10 µM.
In the case of `O=C(NCc1ccc(Br)cc1)c1ccc(-c2ccnc(NCCNc3ccc([N+](=O)[O-])cn3)n2)cc1` [N-[(4-bromophenyl)methyl]{4-[2-({2-[(5-nitro(2-pyridyl))-amino]ethyl}amino)pyrimidin-4-yl]phenyl}carboxamide] it was ≤ 10 µM; in that of `O=C(NCc1ccc(F)cc1)c1ccc(-c2ccnc(NCCNc3ccc([N+](=O)[O-])cn3)n2)cc1` [N-[(4-fluorophenyl)methyl]{4-[2-({2-[(5-nitro(2-pyridyl))amino]ethyl}amino)pyrimidin-4-yl]phenyl}carboxamide], ≤ 10 µM.
The same measure for `COc1ccc(CNC(=O)c2ccc(-c3ccnc(NCCNc4ccc([N+](=O)[O-])cn4)n3)cc2)cc1` [N-[(4-methoxyphenyl)methyl]{4-[2-({2-[(5-nitro(2-pyridyl))amino]ethyl}-amino)pyrimidin-4-yl]phenyl}carboxamide]: ≤ 10 µM; for `Cc1cnc(CNC(=O)c2ccc(-c3ccnc(NCCNc4ccc([N+](=O)[O-])cn4)n3)cc2)cn1` [N-[(5-methylpyrazin-2-yl)methyl]{4-[2-({2-[(5-nitro(2-pyridyl))amino]ethyl}amino)pyrimidin-4-yl]phenyl}carboxamide]: ≤ 10 µM; for `O=C(NCc1ccccc1)c1ccc(-c2ccnc(NCCc3ccccn3)n2)cc1` [N-benzyl(4-{2-[(2-(2-pyridyl)ethyl)amino]pyrimidin-4-yl}phenyl)carboxamide]: ≤ 10 µM.
In the case of `CCCCNC(=O)c1cnc(NCCNc2ccc([N+](=O)[O-])cn2)nc1-c1ccc(C#N)cc1` [N-butyl[4-(4-cyanophenyl)-2-({2-[(5-nitro(2-pyridyl))amino]ethyl}amino)pyrimidin-5-yl]carboxamide] it was ≤ 1 µM; in that of `CC(=O)Nc1ccc(-c2ccnc(NCCNc3ccc([N+](=O)[O-])cn3)n2)cc1` [N-{4-[2-({2-[(5-nitro-2-pyridyl)amino]ethyl}amino)-pyrimidin-4-yl]phenyl}acetamide], ≤ 10 µM.
Take `COc1ccc(OC)c(CCNc2nccc(-c3cccnc3)n2)c1` [[2-(2,5-dimethoxyphenyl)ethyl](4-(3-pyridyl)pyrimidin-2-yl)amine]: the IC50 was ≤ 10 µM.
In the case of `c1ccc(NCCNc2nccc(-c3cccnc3)n2)nc1` [[2-(2-pyridylamino)ethyl](4-(3-pyridyl)pyrimidin-2-yl)amine] it was ≤ 10 µM; in that of `FC(F)(F)Oc1ccc(-c2ccnc(NCCNc3ccccn3)n2)cc1` [[2-(2-pyridylamino)ethyl]{4-[4-(trifluoromethoxy)-phenyl]pyrimidin-2-yl}amine], ≤ 10 µM.
Turning to `CN(C)CCOC(=O)Nc1cnc(NCCNc2ccc([N+](=O)[O-])cn2)nc1-c1ccc(C#N)cc1` [[2-(dimethyl-amino)ethoxy]-N-[4-(4-cyanophenyl)-2-({2-[(5-nitro(2-pyridyl))amino]ethyl}amino)-pyrimidin-5-yl]carboxamide], the IC50 was ≤ 1 µM.
In the case of `O=[N+]([O-])c1ccc(NCCNc2nccc(NCc3ccccc3)n2)nc1` [[2-({2-[(5-nitro(2-pyridyl))amino]ethyl}amino)pyrimidin-4-yl]benzylamine] it was ≤ 10 µM; in that of `Nc1nc(NCCNc2ncc(CO)c(-c3ccc(Cl)cc3Cl)n2)ccc1[N+](=O)[O-]` [[2-({2-[(6-amino-5-nitro(2-pyridyl))amino]ethyl}amino)-4-(2,4-dichlorophenyl)pyrimidin-5-yl]methan-1-ol], ≤ 1 µM; in that of `O=[N+]([O-])c1ccc(NCCNc2ncc(CO)c(-c3ccc(Cl)cc3Cl)n2)nc1` [[4-(2,4-dichlorophenyl)-2-({2-[(5-nitro(2-pyridyl))amino]ethyl}amino)-pyrimidin-5-yl]methan-1-ol], ≤ 1 µM.
For `Cn1ccnc1-c1cnc(NCCNc2ccc([N+](=O)[O-])cn2)nc1-c1ccc(Cl)cc1Cl` [[4-(2,4-dichlorophenyl)-5-(1-methylimidazol-2-yl)pyrimidin-2-yl]{2-[(5-nitro(2-pyridyl))amino]-ethyl}amine], the IC50 is ≤ 1 µM.
The same measure for `Cc1cn(-c2cnc(NCCNc3ccc([N+](=O)[O-])cn3)nc2-c2ccc(Cl)cc2Cl)c(C)n1` [[4-(2,4-dichlorophenyl)-5-(2,4-dimethylimidazolyl)pyrimidin-2-yl]{2-[(5-nitro(2-pyridyl))amino]ethyl}amine]: ≤ 1 µM.
